According to ChEMBL document CHEMBL4673375, “Discovery of a series of 1H-pyrrolo[2,3-b]pyridine compounds as potent TNIK inhibitors” (Bioorg Med Chem Lett, 2021):
Calls of active or inactive are those of the source. The rule behind the calls is not given here.

Key:
[1] = molecular target: T1, TRAF2 and NCK-interacting protein kinase (Homo sapiens, UniProt Q9UKE5); experiment: Inhibition of TNIK (unknown origin)
Target sequence in this assay (Q9UKE5 whole entry): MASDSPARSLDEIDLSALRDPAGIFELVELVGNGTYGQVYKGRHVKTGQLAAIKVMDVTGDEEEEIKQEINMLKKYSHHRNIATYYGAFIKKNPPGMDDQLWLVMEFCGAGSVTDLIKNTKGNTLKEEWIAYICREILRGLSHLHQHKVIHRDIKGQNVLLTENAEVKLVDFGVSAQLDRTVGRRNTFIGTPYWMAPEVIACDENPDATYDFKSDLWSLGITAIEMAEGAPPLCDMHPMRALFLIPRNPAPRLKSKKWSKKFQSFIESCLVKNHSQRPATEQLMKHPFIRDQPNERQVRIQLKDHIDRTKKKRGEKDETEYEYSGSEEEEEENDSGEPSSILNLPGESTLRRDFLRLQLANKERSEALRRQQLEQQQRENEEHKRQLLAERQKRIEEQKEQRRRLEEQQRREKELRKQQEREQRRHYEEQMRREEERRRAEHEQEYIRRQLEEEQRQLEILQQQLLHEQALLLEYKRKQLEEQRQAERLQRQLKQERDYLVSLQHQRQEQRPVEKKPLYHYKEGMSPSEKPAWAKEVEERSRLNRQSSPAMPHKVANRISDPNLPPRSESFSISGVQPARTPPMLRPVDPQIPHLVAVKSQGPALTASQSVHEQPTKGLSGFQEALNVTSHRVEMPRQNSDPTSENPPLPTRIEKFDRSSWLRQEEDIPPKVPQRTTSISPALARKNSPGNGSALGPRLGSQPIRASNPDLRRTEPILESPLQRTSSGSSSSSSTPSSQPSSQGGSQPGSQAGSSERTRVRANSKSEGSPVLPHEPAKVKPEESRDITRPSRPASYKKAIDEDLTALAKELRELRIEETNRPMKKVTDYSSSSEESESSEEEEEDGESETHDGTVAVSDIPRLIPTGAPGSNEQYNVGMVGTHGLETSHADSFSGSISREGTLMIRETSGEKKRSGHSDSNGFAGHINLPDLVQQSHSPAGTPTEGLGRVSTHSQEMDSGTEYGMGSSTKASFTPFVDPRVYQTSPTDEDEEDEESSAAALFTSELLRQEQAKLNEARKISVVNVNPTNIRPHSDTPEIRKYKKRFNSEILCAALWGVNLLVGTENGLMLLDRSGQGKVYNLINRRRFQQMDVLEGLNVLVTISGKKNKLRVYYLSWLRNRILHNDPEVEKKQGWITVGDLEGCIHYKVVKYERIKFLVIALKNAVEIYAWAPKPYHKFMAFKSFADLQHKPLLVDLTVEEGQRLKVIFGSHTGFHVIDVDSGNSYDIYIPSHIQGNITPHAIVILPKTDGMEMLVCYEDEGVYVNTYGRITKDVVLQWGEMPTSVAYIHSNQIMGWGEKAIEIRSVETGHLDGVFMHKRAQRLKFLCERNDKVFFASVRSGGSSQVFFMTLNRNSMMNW

[2] = molecular target: T1, TRAF2 and NCK-interacting protein kinase; experiment: Inhibition of TNIK in human Jurkat cells assessed as reduction in PMA/anti-CD3 antibody-induced IL2 level incubated for 24 hrs by ELISA; format: cell-based; conditions: dose 1-10 µM
Target sequence in this assay (Q9UKE5 whole entry, looked up): as the sequence (Q9UKE5 whole entry) above

[3] = molecular target: T1, TRAF2 and NCK-interacting protein kinase; experiment: Inhibition of TNIK in PMA/anti-CD3 antibody-stimulated human Jurkat cells assessed as IL2 level at 10 uM incubated for 24 hrs by ELISA; format: cell-based
Target sequence in this assay (Q9UKE5 whole entry, looked up): as the sequence (Q9UKE5 whole entry) above

[4] = molecular target: T1, TRAF2 and NCK-interacting protein kinase; experiment: Inhibition of TNIK in human Jurkat cells assessed as reduction in PMA/anti-CD3 antibody-induced IL2 secretion at 1 uM incubated for 24 hrs by ELISA; format: cell-based
Target sequence in this assay (Q9UKE5 whole entry, looked up): as the sequence (Q9UKE5 whole entry) above

Compound	IC50 [1] [nM]	other results
CS(=O)(=O)Nc1cc(C#N)cc(-c2c[nH]c3ncc(-c4cccc(C(=O)NC5CC5)c4)cc23)c1	0.12	
CN1CCC(n2cc(-c3cnc4[nH]cc(-c5cc(C#N)c(Cl)c(NS(C)(=O)=O)c5)c4c3)cn2)CC1	0.68	inhibition [2]: Dose-dependent effect; Activity [3]: < 25 pg/mL
CNC(=O)c1cccc(-c2cnc3[nH]cc(-c4cc(C#N)cc(NS(C)(=O)=O)c4)c3c2)c1	0.18	
CN1CCN(Cc2ccc(-c3cnc4[nH]cc(-c5cc(C#N)c6[nH]ncc6c5)c4c3)cc2)CC1	0.23	inhibition [4]: inactive; Activity [3]: < 25 pg/mL
CS(=O)(=O)Nc1cc(C#N)cc(-c2c[nH]c3ncc(-c4cccc(C(=O)N5CCCCC5)c4)cc23)c1	0.22	
CN1CCN(Cc2ccc(-c3cnc4[nH]cc(-c5ccc(NS(C)(=O)=O)cc5)c4c3)cc2)CC1	18	
CN1CCN(C(=O)c2cccc(-c3cnc4[nH]cc(-c5cc(C#N)cc(NS(C)(=O)=O)c5)c4c3)c2)CC1	0.25	
c1ccc(-c2cnc3[nH]cc(-c4ccccc4)c3c2)cc1	9.2	
CN1CCN(Cc2ccc(-c3cnc4[nH]cc(-c5cnc6[nH]ncc6c5)c4c3)cc2)CC1	7.9	
CC(C)(Oc1ccc(-c2cnc3[nH]cc(-c4cc(C#N)cc(NS(C)(=O)=O)c4)c3c2)cc1)C(=O)O	0.33	inhibition [2]: Dose-dependent effect
CC(C)(C(=O)O)c1ccc(-c2cnc3[nH]cc(-c4cc(C#N)cc(NS(C)(=O)=O)c4)c3c2)cc1	0.47	inhibition [2]: Dose-dependent effect
CN1CCN(Cc2ccc(-c3cnc4[nH]cc(-c5cccc6ccccc56)c4c3)cc2)CC1	31	
CNC(=O)c1cccc(-c2cnc3[nH]cc(-c4cc(C#N)c(Cl)c(NS(C)(=O)=O)c4)c3c2)c1	0.3	
CN1CCN(Cc2ccc(-c3cnc4[nH]cc(-c5cc(C#N)cc(NS(=O)(=O)C6CC6)c5)c4c3)cc2)CC1	0.19	inhibition [2]: Dose-dependent effect; Activity [3]: < 25 pg/mL
CN(C)C1CCN(C(=O)c2cccc(-c3cnc4[nH]cc(-c5cc(C#N)cc(NS(C)(=O)=O)c5)c4c3)c2)C1 (stereo not drawn)	0.22	
CN1CCN(Cc2ccc(-c3cnc4[nH]cc(-c5cc(C#N)cc(NS(C)(=O)=O)c5)c4c3)cc2)CC1	0.13	inhibition [2]: Dose-dependent effect; Activity [3]: < 25 pg/mL
CS(=O)(=O)Nc1cc(C#N)cc(-c2c[nH]c3ncc(-c4cccc(C(=O)N5CCCC5)c4)cc23)c1	0.21	
CN1CCN(C(=O)c2ccc(-c3cnc4[nH]cc(-c5cc(C#N)cc(NS(C)(=O)=O)c5)c4c3)cc2)CC1	0.21	
CN1CCN(Cc2ccc(-c3cnc4[nH]cc(-c5cc(C#N)c(Cl)c(NS(C)(=O)=O)c5)c4c3)cc2)CC1	0.43	inhibition [2]: Dose-dependent effect
Cn1cc(-c2ccc(-c3cnc4[nH]cc(-c5cc(C#N)cc(NS(C)(=O)=O)c5)c4c3)cc2)cn1	0.8	

The next lines start with results.

IC50 [1] [nM]	Compound	other results
7.1	CN1CCN(Cc2ccc(-c3cnc4[nH]cc(-c5cccc(NS(C)(=O)=O)c5)c4c3)cc2)CC1	
15	CN1CCN(Cc2ccc(-c3cnc4[nH]cc(-c5cccc(N)c5)c4c3)cc2)CC1	
0.44	CN1CCN(Cc2ccc(-c3cnc4[nH]cc(-c5ccc6[nH]ncc6c5)c4c3)cc2)CC1	
43	CN1CCN(Cc2ccc(-c3cnc4[nH]cc(-c5cccc(C(=O)N(C)C)c5)c4c3)cc2)CC1	
12	CC(=O)Nc1cccc(-c2c[nH]c3ncc(-c4ccc(CN5CCN(C)CC5)cc4)cc23)c1	
3.8	CN1CCN(Cc2ccc(-c3cnc4[nH]cc(-c5ccc6[nH]cnc6c5)c4c3)cc2)CC1	
0.91	CN1CCN(Cc2ccc(-c3cnc4[nH]cc(-c5cccc(C#N)c5)c4c3)cc2)CC1	
19	CN1CCN(Cc2ccc(-c3cnc4[nH]cc(-c5ccc(F)cc5)c4c3)cc2)CC1	
27	CNC(=O)c1cccc(-c2c[nH]c3ncc(-c4ccc(CN5CCN(C)CC5)cc4)cc23)c1	
14	CN1CCN(Cc2ccc(-c3cnc4[nH]cc(-c5ccccc5)c4c3)cc2)CC1	
14	CN1CCN(Cc2ccc(-c3cnc4[nH]cc(-c5ccc(Cl)cc5)c4c3)cc2)CC1	
5.2	CN1CCN(Cc2ccc(-c3cnc4[nH]cc(-c5ccc6[nH]ccc6c5)c4c3)cc2)CC1	
